# In patent US20100249408A1, “USE OF NOVEL COMPOUND HAVING AFFINITY FOR AMYLOID, AND PROCESS FOR PRODUCTION OF THE SAME” (NIHON MEDI-PHYSICS CO., LTD., priority 2007, published 2010):
# Read-outs that look alike come from different tables or passages of the source.
# Tests used:
# [1] = Transferability into brain and clearance (Example I-16, Comparative Example I-7); format: in vivo, male Wistar rats; conditions: rats, intravenous injection, two animals
# Procedure: Using Compound 6, a time course change of radioactive accumulation in brain of male Wistar rats (7-week old) was measured.
# Also, radioactivity (hereinafter referred to as B in this Example) of 0.05 mL of a 1000-fold diluted solution of the injected solution was measured in the same manner as above. Using these measurement results, radioactive accumulation per unit weight of brain (% ID/g) at the respective time points was calculated in accordance with the following formula (3).
# [2] = target: intracerebral amyloid (aggregated Aβ1-40 injected into amygdaloid nucleus) (Homo sapiens, UniProt P05067); conditions: rat with Aβ1-40 amyloid suspension in one amygdaloid nucleus, tail vein, brain removed 60 minutes after injection
# Chain of intracerebral amyloid (aggregated Aβ1-40 injected into amygdaloid nucleus) (P05067 672-711): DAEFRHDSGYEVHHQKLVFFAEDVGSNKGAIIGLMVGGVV
# Procedure: The following experiment was carried out in order to examine whether amyloid in brain can be imaged by the compound of the present invention.
# The rats were examined 1 day after the injection of the amyloid suspension and the phosphate buffered physiological saline solution (pH 7.4).
# (4) Brain was removed 60 minutes after the injection to prepare a brain slice of 10 μm in thickness with a microtome (type: CM3050S, manufactured by LEICA).
# amylin amyloid = amylin amyloid (Homo sapiens, UniProt P10997); conditions: amylin amyloid 0.8 μg/mL, compound 0.2-20.2 pM, 22° C., 3 hours (FIG. 16)
# Chain of amylin amyloid (P10997 34-70 limits assumed): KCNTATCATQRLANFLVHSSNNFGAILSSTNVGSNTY
# Description: (§1) Affinity of the present compounds with amyloid was examined by the following in vitro binding tests.
# insulin amyloid = insulin amyloid (Homo sapiens, UniProt P01308); conditions: insulin amyloid 0.8 μg/mL, compound 0.2-20.2 pM, 22° C., 3 hours (FIG. 16)
# Chain of insulin amyloid (P01308 25-54 limits assumed): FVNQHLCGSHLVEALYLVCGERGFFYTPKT
# Chain of insulin amyloid (P01308 90-110 limits assumed): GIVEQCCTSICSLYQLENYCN
# Description: as §1
# [3] = target: β2-m-amyloid (aggregated β2-microglobulin) (Homo sapiens, UniProt P61769); conditions: β2-m-amyloid 0.8 μg/mL, compound 0.2-20.2 pM, 22° C., 3 hours (FIG. 16)
# Chain of β2-m-amyloid (aggregated β2-microglobulin) (P61769 21-119): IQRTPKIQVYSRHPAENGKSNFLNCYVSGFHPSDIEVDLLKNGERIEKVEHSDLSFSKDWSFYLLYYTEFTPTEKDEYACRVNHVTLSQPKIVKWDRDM
# Description: as §1
# [4] = SD rat; for Radioactive distribution per unit weight, Adrenal gland, Average / Radioactive distribution per unit weight, Blood, Average / Radioactive distribution per unit weight, Bone, Average / Radioactive distribution per unit weight, Brain, Average / Radioactive distribution per unit weight, Heart, Average / Radioactive distribution per unit weight, Kidney, Average / Radioactive distribution per unit weight, Large intestine, Average / Radioactive distribution per unit weight, Liver, Average / Radioactive distribution per unit weight, Lung, Average / Radioactive distribution per unit weight, Marrow, Average / Radioactive distribution per unit weight, Muscle, Average / Radioactive distribution per unit weight, Pancreas, Average / Radioactive distribution per unit weight, Small intestine, Average / Radioactive distribution per unit weight, Spleen, Average / Radioactive distribution per unit weight, Stomach, Average: tail vein
# Procedure: A solution of Compound 6 in diethylether was diluted with a 10 mg/mL ascorbic acid-containing physiological saline solution and adjusted to 8-12 MBq/mL in radioactive concentration. 0.2 mL each of the prepared sample solution was administered under non-anesthesia into the tail vein of the above rat. The rats were sacrificed by bleeding from abdominal artery, and each organ shown in Table 11 was removed 5, 30, 60 and 180 minutes after the administration. […] Also, radioactivity of the whole body of the rat after removal of the organs (hereinafter referred to as rest of the whole body) was measured. Using these measurement results, radioactive distribution per unit weight of each organ (% ID/g) at the respective time points was calculated in accordance with the following formula (6).
# Three animals were used for the experiment at the respective time points.
# [formula] • R^T: Radioactivity of target organ (cpm) • R^S: Sum of radioactivity of all the organs (cpm) • R^R: Radioactivity of the rest of the whole body (cpm) • M^T: Mass of target organ (g)
structure (smiles),measurement,setting,value
"Oc1ccc(-c2cn3cc([123I])ccc3n2)cc1 [Compound 6, [^123I]-2-(4′-hydroxyphenyl)-6-iodoimidazo[1,2-a]pyridine]",Radioactive accumulation in brain per unit weight,[1]; after 2 min.,0.96 % ID/g
same,Radioactive accumulation in brain per unit weight,[1]; after 5 min.,0.69 % ID/g
same,Radioactive accumulation in brain per unit weight,[1]; after 30 min.,0.16 % ID/g
same,Radioactive accumulation in brain per unit weight,[1]; after 60 min.,0.04 % ID/g
same,Accumulation of radioactivity at intracerebral amyloid (autoradiogram),[2],accumulating on intracerebral amyloid
same,Radioactive count on glass fiber filter versus group without addition of amyloid,amylin amyloid,radioactivity was all high compared to the group without addition of amyloid suspension
same,Radioactive count on glass fiber filter versus group without addition of amyloid,insulin amyloid,radioactivity was all high compared to the group without addition of amyloid suspension
same,Radioactive count on glass fiber filter versus group without addition of amyloid,[3],radioactivity was all high compared to the group without addition of amyloid suspension
same,Ratio (% ID/g at 5 minutes after the administration)/(% ID/g at 180 minutes after the administration),[4]; bone,4
same,Ratio (% ID/g at 5 minutes after the administration)/(% ID/g at 180 minutes after the administration),[4]; brain,122
same,Ratio (% ID/g at 5 minutes after the administration)/(% ID/g at 180 minutes after the administration),[4]; heart,13
same,Ratio (% ID/g at 5 minutes after the administration)/(% ID/g at 180 minutes after the administration),[4]; lung,7
same,Ratio (% ID/g at 5 minutes after the administration)/(% ID/g at 180 minutes after the administration),[4]; pancreas,14
same,"Radioactive distribution per unit weight, Adrenal gland, Average",[4]; 5 min. after administration,4.648 % ID/g
same,"Radioactive distribution per unit weight, Adrenal gland, Average",[4]; 30 min. after administration,0.642 % ID/g
same,"Radioactive distribution per unit weight, Adrenal gland, Average",[4]; 60 min. after administration,0.260 % ID/g
same,"Radioactive distribution per unit weight, Adrenal gland, Average",[4]; 180 min. after administration,0.020 % ID/g
same,"Radioactive distribution per unit weight, Blood, Average",[4]; 5 min. after administration,0.285 % ID/g
same,"Radioactive distribution per unit weight, Blood, Average",[4]; 30 min. after administration,0.174 % ID/g
same,"Radioactive distribution per unit weight, Blood, Average",[4]; 60 min. after administration,0.122 % ID/g
same,"Radioactive distribution per unit weight, Blood, Average",[4]; 180 min. after administration,0.109 % ID/g
same,"Radioactive distribution per unit weight, Bone, Average",[4]; 5 min. after administration,0.222 % ID/g
same,"Radioactive distribution per unit weight, Bone, Average",[4]; 30 min. after administration,0.088 % ID/g
same,"Radioactive distribution per unit weight, Bone, Average",[4]; 60 min. after administration,0.058 % ID/g
same,"Radioactive distribution per unit weight, Bone, Average",[4]; 180 min. after administration,0.053 % ID/g
same,"Radioactive distribution per unit weight, Brain, Average",[4]; 5 min. after administration,0.721 % ID/g
same,"Radioactive distribution per unit weight, Brain, Average",[4]; 30 min. after administration,0.124 % ID/g
same,"Radioactive distribution per unit weight, Brain, Average",[4]; 60 min. after administration,0.030 % ID/g
same,"Radioactive distribution per unit weight, Brain, Average",[4]; 180 min. after administration,0.006 % ID/g
same,"Radioactive distribution per unit weight, Heart, Average",[4]; 5 min. after administration,0.619 % ID/g
same,"Radioactive distribution per unit weight, Heart, Average",[4]; 30 min. after administration,0.147 % ID/g
same,"Radioactive distribution per unit weight, Heart, Average",[4]; 60 min. after administration,0.063 % ID/g
same,"Radioactive distribution per unit weight, Heart, Average",[4]; 180 min. after administration,0.047 % ID/g
same,"Radioactive distribution per unit weight, Kidney, Average",[4]; 5 min. after administration,0.999 % ID/g
same,"Radioactive distribution per unit weight, Kidney, Average",[4]; 30 min. after administration,0.540 % ID/g
same,"Radioactive distribution per unit weight, Kidney, Average",[4]; 60 min. after administration,0.244 % ID/g
same,"Radioactive distribution per unit weight, Kidney, Average",[4]; 180 min. after administration,0.108 % ID/g
same,"Radioactive distribution per unit weight, Large intestine, Average",[4]; 5 min. after administration,0.116 % ID/g
same,"Radioactive distribution per unit weight, Large intestine, Average",[4]; 30 min. after administration,0.070 % ID/g
same,"Radioactive distribution per unit weight, Large intestine, Average",[4]; 60 min. after administration,0.066 % ID/g
same,"Radioactive distribution per unit weight, Large intestine, Average",[4]; 180 min. after administration,7.296 % ID/g
same,"Radioactive distribution per unit weight, Liver, Average",[4]; 5 min. after administration,2.008 % ID/g
same,"Radioactive distribution per unit weight, Liver, Average",[4]; 30 min. after administration,0.509 % ID/g
same,"Radioactive distribution per unit weight, Liver, Average",[4]; 60 min. after administration,0.181 % ID/g
same,"Radioactive distribution per unit weight, Liver, Average",[4]; 180 min. after administration,0.083 % ID/g
same,"Radioactive distribution per unit weight, Lung, Average",[4]; 5 min. after administration,0.657 % ID/g
same,"Radioactive distribution per unit weight, Lung, Average",[4]; 30 min. after administration,0.209 % ID/g
same,"Radioactive distribution per unit weight, Lung, Average",[4]; 60 min. after administration,0.120 % ID/g
same,"Radioactive distribution per unit weight, Lung, Average",[4]; 180 min. after administration,0.089 % ID/g
same,"Radioactive distribution per unit weight, Marrow, Average",[4]; 5 min. after administration,0.713 % ID/g
same,"Radioactive distribution per unit weight, Marrow, Average",[4]; 30 min. after administration,0.194 % ID/g
same,"Radioactive distribution per unit weight, Marrow, Average",[4]; 60 min. after administration,0.000 % ID/g
same,"Radioactive distribution per unit weight, Marrow, Average",[4]; 180 min. after administration,0.030 % ID/g
same,"Radioactive distribution per unit weight, Muscle, Average",[4]; 5 min. after administration,0.381 % ID/g
same,"Radioactive distribution per unit weight, Muscle, Average",[4]; 30 min. after administration,0.078 % ID/g
same,"Radioactive distribution per unit weight, Muscle, Average",[4]; 60 min. after administration,0.034 % ID/g
same,"Radioactive distribution per unit weight, Muscle, Average",[4]; 180 min. after administration,0.022 % ID/g
same,"Radioactive distribution per unit weight, Pancreas, Average",[4]; 5 min. after administration,0.846 % ID/g
same,"Radioactive distribution per unit weight, Pancreas, Average",[4]; 30 min. after administration,0.207 % ID/g
same,"Radioactive distribution per unit weight, Pancreas, Average",[4]; 60 min. after administration,0.084 % ID/g
same,"Radioactive distribution per unit weight, Pancreas, Average",[4]; 180 min. after administration,0.060 % ID/g
same,"Radioactive distribution per unit weight, Small intestine, Average",[4]; 5 min. after administration,1.078 % ID/g
same,"Radioactive distribution per unit weight, Small intestine, Average",[4]; 30 min. after administration,6.335 % ID/g
same,"Radioactive distribution per unit weight, Small intestine, Average",[4]; 60 min. after administration,8.207 % ID/g
same,"Radioactive distribution per unit weight, Small intestine, Average",[4]; 180 min. after administration,1.408 % ID/g
same,"Radioactive distribution per unit weight, Spleen, Average",[4]; 5 min. after administration,0.462 % ID/g
same,"Radioactive distribution per unit weight, Spleen, Average",[4]; 30 min. after administration,0.140 % ID/g
same,"Radioactive distribution per unit weight, Spleen, Average",[4]; 60 min. after administration,0.075 % ID/g
same,"Radioactive distribution per unit weight, Spleen, Average",[4]; 180 min. after administration,0.072 % ID/g
same,"Radioactive distribution per unit weight, Stomach, Average",[4]; 5 min. after administration,0.360 % ID/g
same,"Radioactive distribution per unit weight, Stomach, Average",[4]; 30 min. after administration,1.025 % ID/g
same,"Radioactive distribution per unit weight, Stomach, Average",[4]; 60 min. after administration,1.043 % ID/g
same,"Radioactive distribution per unit weight, Stomach, Average",[4]; 180 min. after administration,1.081 % ID/g
